In ChEMBL document CHEMBL4732125, “Structures/cytotoxicity/selectivity relationship of natural steroidal saponins against GSCs and primary mechanism of tribulosaponin A” (Eur J Med Chem, 2021):
The source made the active and inactive calls. The calls are words filed in the database; no cut-off is given here.

Experiments:
[1] = Induction of apoptosis in human GSC-3 cells assessed as necrotic cells at 7.5 uM incubated for 36 hrs by Annexin V-FITC/PI staining based flow cytometric analysis (reference value: 1.42%); format: functional
GSC-18 [2] = test: Inhibition of colony formation in human GSC-18 cells assessed as tumor spheres damage at 15 uM after 2 weeks by crystal violet staining based assay; format: functional, cell-based
U-87 MG [3] = test: Inhibition of colony formation in human U-87 MG cells assessed as decrease in number of tumor spheres at 15 uM by crystal violet staining based assay; format: functional, cell-based; conditions: U-87MG ATCC
GSC-3 [4] = test: Induction of apoptosis in human GSC-3 cells assessed as accumulation of ROS by measuring increase in NCF1 expression at 15 uM after 48 hrs by transcriptome analysis; format: functional, cell-based
[5] = Induction of apoptosis in human GSC-3 cells assessed as late apoptotic cells at 20 uM incubated for 36 hrs by Annexin V-FITC/PI staining based flow cytometric analysis (reference value: 7.79%); format: functional
[6] = Cytotoxicity against human GSC3 cells assessed as reduction in cell viability after 72 hrs by MTS assay; format: functional, cell-based; conditions: GSC-3, 72 h
[7] = Induction of apoptosis in human GSC-3 cells assessed as viable cells at 10 uM incubated for 36 hrs by Annexin V-FITC/PI staining based flow cytometric analysis (reference value: 83.8%); format: functional; conditions: read-out: Activity
GSC-3 [8] = test: Inhibition of colony formation in human GSC-3 cells assessed as tumor spheres damage at 15 uM after 2 weeks by crystal violet staining based assay; format: functional, cell-based
GSC-3 [9] = test: Induction of apoptosis in human GSC-3 cells assessed as reduction in Bcl-2 protein expression at 7.5 to 20 uM after 48 hrs by Western blotting analysis; format: functional, cell-based; conditions: dose 7.5-20 µM
T98G [10] = test: Inhibition of colony formation in human […] cells assessed as decrease in number of tumor spheres at 15 uM by crystal violet staining based assay; format: functional, cell-based
GSC-18 [11] = test: Cytotoxicity against human GSC18 cells assessed as inhibition of cell growth at 20 uM after 5 days; format: functional, cell-based; conditions: time 5.0 day
T98G [12] = test: Cytotoxicity against human T98G assessed as reduction in cell viability after 72 hrs by MTS assay; format: cell-based; conditions: Homo sapiens, T98G
GSC-3 [13] = test: Induction of apoptosis in human GSC-3 cells assessed as accumulation of ROS by measuring increase in NOX1 expression at 15 uM after 48 hrs by transcriptome analysis; format: functional, cell-based
[14] = Induction of apoptosis in human GSC-3 cells assessed as late apoptotic cells at 10 uM incubated for 36 hrs by Annexin V-FITC/PI staining based flow cytometric analysis (reference value: 7.79%); format: functional
T98G [15] = test: Inhibition of colony formation in human […] cells assessed as tumor spheres damage at 15 uM by crystal violet staining based assay; format: functional, cell-based
GSC-3 [16] = test: Induction of apoptosis in human GSC-3 cells assessed as increase in cleaved caspase 3 at 15 uM after 48 hrs by immunofluorescence assay; format: functional, cell-based
HEK-293T [17] = test: Cytotoxicity against human 293T cells assessed as inhibition of cell growth at 20 uM after 5 days; format: cell-based; conditions: 120 h, time 5 day
GSC-3 [18] = test: Induction of apoptosis in human GSC-3 cells assessed as cell shrank at 20 uM; format: functional, cell-based
HEK-293T [19] = test: Induction of apoptosis in human 293T cells assessed as accumulation of ROS by measuring increase in NCF1 expression at 15 uM after 48 hrs by transcriptome analysis; format: functional, cell-based
GSC-3 [20] = test: Antiproliferative activity against human GSC-3 cells assessed as inhibition of cell growth at 15 uM after 48 hrs by BrdU incorporation assay; format: functional, cell-based
[21] = Induction of apoptosis in human GSC-3 cells assessed as necrotic cells at 10 uM incubated for 36 hrs by Annexin V-FITC/PI staining based flow cytometric analysis (reference value: 1.42%); format: functional
[22] = Induction of apoptosis in human GSC-3 cells assessed as early apoptotic cells at 20 uM incubated for 36 hrs by Annexin V-FITC/PI staining based flow cytometric analysis (reference value: 6.99%); format: functional
[23] = Induction of apoptosis in human GSC-3 cells assessed as viable cells at 20 uM incubated for 36 hrs by Annexin V-FITC/PI staining based flow cytometric analysis (reference value: 83.8%); format: functional; conditions: read-out: Activity
HUVEC [24] = test: Cytotoxicity against HUVEC assessed as inhibition of cell growth at 20 uM after 5 days; format: cell-based; conditions: human, 120 h, time 5 day
GSC-3 [25] = test: Induction of apoptosis in human GSC-3 cells assessed as ROS accumulation at 4 to 12 uM after 3 hrs in presence of NAC by DCFH-DA assay; format: functional, cell-based; conditions: dose 4-12 µM
GSC-18 [26] = test: Induction of apoptosis in human GSC-18 cells assessed as appearance of round and detached cells at 20 uM; format: functional, cell-based
U-87 MG [27] = test: Cytotoxicity against human U-87 MG cells assessed as reduction in cell viability after 72 hrs by MTS assay; format: cell-based, U-87MG ATCC; conditions: Homo sapiens, U-87 MG
[28] = Induction of apoptosis in human GSC-3 cells assessed as late apoptotic cells at 7.5 uM incubated for 36 hrs by Annexin V-FITC/PI staining based flow cytometric analysis (reference value: 7.79%); format: functional
GSC-18 [29] = test: Induction of apoptosis in human GSC-18 cells assessed as cell shrank at 20 uM; format: functional, cell-based
HEK-293T [30] = test: Induction of apoptosis in human 293T cells assessed as accumulation of ROS by measuring increase in NOX1 expression at 15 uM after 48 hrs by transcriptome analysis; format: functional, cell-based
HEK-293T [31] = test: Cytotoxicity against human 293T cells assessed as reduction in cell viability after 72 hrs by MTS assay; format: cell-based; conditions: Homo sapiens, HEK-293T
HUVEC [32] = test: Cytotoxicity against HUVEC assessed as reduction in cell viability after 72 hrs by MTS assay; format: cell-based, Homo sapiens; conditions: Homo sapiens, HUVEC
GSC-18 [33] = test: Inhibition of colony formation in human GSC-18 cells assessed as decrease in number of tumor spheres at 15 uM after 2 weeks by crystal violet staining based assay; format: functional, cell-based
[34] = Induction of apoptosis in human GSC-3 cells assessed as early apoptotic cells at 10 uM incubated for 36 hrs by Annexin V-FITC/PI staining based flow cytometric analysis (reference value: 6.99%); format: functional
[35] = Induction of apoptosis in human GSC-3 cells assessed as necrotic cells at 20 uM incubated for 36 hrs by Annexin V-FITC/PI staining based flow cytometric analysis (reference value: 1.42%); format: functional
[36] = Cytotoxicity against human GSC18 cells assessed as reduction in cell viability after 72 hrs by MTS assay; format: functional, cell-based, GSC-18; conditions: GSC18, 72 h
[37] = Induction of apoptosis in human GSC-3 cells assessed as viable cells at 7.5 uM incubated for 36 hrs by Annexin V-FITC/PI staining based flow cytometric analysis (reference value: 83.8%); format: functional; conditions: read-out: Activity
GSC-3 [38] = test: Cytotoxicity against human GSC3 cells assessed as inhibition of cell growth at 20 uM after 5 days; format: functional, cell-based; conditions: time 5.0 day
[39] = Induction of apoptosis in human GSC-3 cells assessed as early apoptotic cells at 7.5 uM incubated for 36 hrs by Annexin V-FITC/PI staining based flow cytometric analysis (reference value: 6.99%); format: functional
U-87 MG [40] = test: Inhibition of colony formation in human U-87 MG cells assessed as tumor spheres damage at 15 uM by crystal violet staining based assay; format: functional, cell-based; conditions: U-87MG ATCC
GSC-18 [41] = test: Antiproliferative activity against human GSC-18 cells assessed as inhibition of cell growth at 15 uM after 48 hrs by BrdU incorporation assay; format: functional, cell-based
GSC-18 [42] = test: Induction of apoptosis in human GSC-18 cells assessed as increase in cleaved caspase 3 at 15 uM after 48 hrs by immunofluorescence assay; format: functional, cell-based
GSC-3 [43] = test: Induction of apoptosis in human GSC-3 cells assessed as appearance of round and detached cells at 20 uM; format: functional, cell-based
GSC-18 [44] = test: Induction of apoptosis in human GSC-18 cells assessed as ROS accumulation at 4 to 12 uM after 3 hrs in presence of NAC by DCFH-DA assay; format: functional, cell-based; conditions: dose 4-12 µM
GSC-3 [45] = test: Inhibition of colony formation in human GSC-3 cells assessed as decrease in number of tumor spheres at 15 uM after 2 weeks by crystal violet staining based assay; format: functional, cell-based
U-87 MG [46] = test: Cytotoxicity against human U-87 MG cells assessed as inhibition of cell growth at 20 uM after 5 days; format: cell-based; conditions: u-87mg atcc, 120 h, time 5 day
T98G [47] = test: Cytotoxicity against human T98G cells assessed as inhibition of cell growth at 20 uM after 5 days; format: cell-based; conditions: 120 h, time 5 day

For `CC1=C(CC[C@H](C)CO[C@@H]2O[C@H](CO)[C@@H](O)[C@H](O)[C@H]2O)O[C@H]2C[C@H]3[C@@H]4CC[C@@H]5C[C@@H](O[C@@H]6O[C@H](CO)[C@@H](O[C@@H]7O[C@@H](C)[C@H](O)[C@@H](O)[C@H]7O)[C@H](O)[C@H]6O[C@@H]6O[C@@H](C)[C@H](O)[C@@H](O)[C@H]6O)CC[C@]5(C)[C@H]4CC[C@]3(C)[C@@H]12`, the Activity [1] was 1.01%, the Activity (GSC-18 [2]) was “Active” and the Activity (U-87 MG [3]) was “Active”. For the same compound, the Activity (GSC-3 [4]) was “Active”, the Activity [5] was 5.03% and the IC50 [6] was 7 µM. The viability at 10 µM [7] was 60.4%, the Activity (GSC-3 [8]) was “Active” and the Activity (GSC-3 [9]) was “Active”. The inhibition (T98G [10]) was “Active”, the Activity (GSC-18 [11]) was “Active” and the IC50 (T98G [12]) was greater than 100 µM. For the same compound, the Activity (GSC-3 [13]) was “Active”, the Activity [14] was 4.67% and the inhibition (T98G [15]) was “Active”. For the same compound, the Activity (GSC-3 [16]) was “Active”, the Activity (HEK-293T [17]) was “Non-Toxic” and the Activity (GSC-3 [18]) was “Active”. The Activity (HEK-293T [19]) was “inactive”, the Activity (GSC-3 [20]) was “Active” and the Activity [21] was 0.69%. For the same compound, the Activity [22] was 53.3%, the viability at 20 µM [23] was 41.1% and the Activity (HUVEC [24]) was “Non-Toxic”. The Activity (GSC-3 [25]) was “inactive”, the Activity (GSC-18 [26]) was “Active” and the IC50 (U-87 MG [27]) was greater than 100 µM. For the same compound, the Activity [28] was 5.46%, the Activity (GSC-18 [29]) was “Active” and the Activity (HEK-293T [30]) was “inactive”. For the same compound, the IC50 (HEK-293T [31]) was greater than 100 µM, the IC50 (HUVEC [32]) was greater than 100 µM and the inhibition (GSC-18 [33]) was “Active”. The Activity [34] was 34.3%, the Activity [35] was 0.56% and the IC50 [36] was 6.6 µM. The viability at 7.5 µM [37] was 74.1%, the Activity (GSC-3 [38]) was “Active” and the Activity [39] was 19.4%. The Activity (U-87 MG [40]) was “Active”, the Activity (GSC-18 [41]) was “Active” and the Activity (GSC-18 [42]) was “Active”. For the same compound, the Activity (GSC-3 [43]) was “Active”, the Activity (GSC-18 [44]) was “inactive” and the inhibition (GSC-3 [45]) was “Active”. For the same compound, the Activity (U-87 MG [46]) was “Non-Toxic” and the Activity (T98G [47]) was “Non-Toxic”.
